Data from EP4389751A1, “HETEROCYCLIC COMPOUNDS AND USES THEREOF” (Kumquat Biosciences Inc., priority 2021, dated 2024).

Assays:
GP2D cells = experiment: Cell proliferation assay (CellTiter-Glo), K-Ras G12D cells; type: cell-based; conditions: GP2D cells (K-Ras G12D); read-out: Inhibition of GP2D Cells (IC50)
How it was run: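 GP2D (K-Ras G12D) cells seeded in DMEM with 2 mM glutamine and 10% FBS, then dosed next day with a dilution series (e.g., 9-point 3-fold). Viability read by CellTiter-Glo luminescence after about 5 days. IC50 from four-parameter fit.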

[1] = target: T1, KRAS protein (His-tagged GDP-loaded G12S 1-169) (Homo sapiens, UniProt P01116, G12S); experiment: Covalent modification of KRAS protein, intact-protein LC-MS; type: binding; conditions: 24hrs at room temperature, KRAS protein ~2 µM
T1 construct: His-tagged GDP-loaded G12S 1-169
Protocol: Test compounds are prepared as 10 mM stock solutions in DMSO (Fisher cat#BP231-100). KRAS protein (His-tagged GDP-loaded wildtype 1-169, His-tagged GDP-loaded G12S 1-169 or His-tagged GDP-loaded G12D 1-169) is diluted to ~2 µM in appropriate buffer (e.g., a Hepes buffer at physiological conditions). For testing KRAS modification, compounds are diluted to 50X final test concentration in DMSO in 96-well storage plates. 2 µl of the diluted 50X compounds are added to appropriate wells in the PCR plate (Fisher cat#AB-0800). […] of the stock protein solution is added to each well of the 96-well PCR plate. Reactions are mixed carefully. The plate is sealed well with aluminum plate seal, and stored in drawer at room temperature for 24hrs. 5 µl of 2% formic acid (Fisher cat#A1 17-50) in MilliQ H2O is then added to each well followed by mixing with a pipette. The plate is then resealed with aluminum seal and stored until mass spectrometry analysis.
The extent of covalent modification of KRAS proteins was determined by liquid chromatography electrospray mass spectrometry analysis of the intact proteins on a Thermo Q-Exactive Plus mass spectrometer. 20 µl of sample was injected onto a bioZen 3.6 µm Intact C4 column (Phenomenex cat#00B-4767-AN) placed in a column oven set to 40°C and separated using a suitable LC gradient from -20% to ~60% solvent B. Solvent A was 0.1% formic acid and solvent B was 0.1% formic acid in acetonitrile. HESI source settings were set to 40, 5 and 1 for the sheath, auxiliary and sweep gas flow, respectively. The spray voltage was 4 kV, and the capillary temperature was 320°C. S-lens RF level was 50 and auxiliary gas heater temperature was set to 200°C. The mass spectrometry was acquired using a scan range from 650 to 1750 m/z using positive polarity at a mass resolution of 70,000, AGC target of 1e6 ions and maximum injection time of 250ms. The recorded protein mass spectrum was deconvoluted from the raw data file using Protein Deconvolution v4.0 (Thermo). The protein mass and adduct masses were exported with their peak intensities. The peak intensities for the unmodified and modified protein were used to calculate the percent covalent modification of the KRAS protein based on the following equation: %KRAS protein modification = ((KRAS-compound) / (KRAS) + (KRAS-Compound)) *100.

K-Ras G12S = target: T2, K-Ras G12S (Homo sapiens, UniProt P01116, G12S); experiment: HTRF assay of the K-Ras / SOS1 interaction; type: biochemical; conditions: IC50 (against K-Ras G12D) to IC50 (against K-Ras G12S)
T2 construct: made in house; host or cells: E. coli (e.g., BL21 (DE3))
How it was run: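 GST-K-Ras G12S with anti-GST-Eu donor and His-hSOS1 with anti-6His-XL665 acceptor in ~5 mM HEPES pH 7.4, ~150 mM NaCl, 1 mM DTT, 0.05% BSA, 0.0025% Igepal. Read after ~10 min or longer; IC50 from 665/620 nm ratio, duplicates at 10 µM down to 0.01 µM.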

Row | Structure (SMILES) | IC50 (GP2D cells) [nM] | % G12S Modification at 24 hr. [1] | Ratio of IC50 KRAS G12D vs. IC50 KRAS G12S (K-Ras G12S)
1 | N#Cc1cccn1C(=O)N1CCN(c2nc(OC[C@@]34CCCN3C[C@H](F)C4)nc3c(F)c(-c4ccc(F)c5sc(N)nc45)c(Cl)cc23)CC1 [Compound A287, 1-(4-(7-(2-amino-7-fluorobenzo[d]thiazol-4-yl)-6-chloro-8-fluoro-2-(((2R,7aS)-2-fluorotetrahydro-1H-pyrrolizin-7a(5H)-yl)methoxy)quinazolin-4-yl)piperazine-1-carbonyl)-1H-pyrrole-2-carbonitrile] | 1000 to 10000 | ++ (++ indicates between about 1%- 20% labelling) | –
2 | N#CC[C@H]1CN(c2nc(OC[C@@]34CCCN3C[C@H](F)C4)nc3c(F)c(-c4ccc(F)c5sc(N)nc45)c(Cl)cc23)CCN1C(=O)n1cncn1 [Compound A145, 2-((2S)-4-(7-(2-amino-7-fluorobenzo[d]thiazol-4-yl)-6-chloro-8-fluoro-2-(((2R,7aS)-2-fluorotetrahydro-1H-pyrrolizin-7a(5H)-yl)methoxy)quinazolin-4-yl)-1-(1H-1,2,4-triazole-1-carbonyl)piperazin-2-yl)acetonitrile] | 1000 to 10000 | +++ (+++ indicates greater than 20% labelling) | A (A: indicates that the ratio of IC50 against KrasG12D vs. IC50 against KrasG12S is 1-fold or greater)
3 | Nc1nc2c(-c3c(Cl)cc4c(N5CCC56CCCN(C(=O)n5cncn5)C6)nc(OCC56CCCN5CC(F)C6)nc4c3F)ccc(F)c2s1 (stereo not drawn) [Compound A197, (1-(7-(2-amino-7-fluorobenzo[d]thiazol-4-yl)-6-chloro-8-fluoro-2-((2-fluorotetrahydro-1H-pyrrolizin-7a(5H)-yl)methoxy)quinazolin-4-yl)-1,6-diazaspiro[3.5]nonan-6-yl)(1H-1,2,4-triazol-1-yl)methanone] | 1000 to 10000 | +++ (+++ indicates greater than 20% labelling) | A (A: indicates that the ratio of IC50 against KrasG12D vs. IC50 against KrasG12S is 1-fold or greater)
4 | N#Cc1nccn1C(=O)N1CCCN(c2nc(OC[C@@]34CCCN3C[C@H](F)C4)nc3c(F)c(-c4ccc(F)c5sc(N)nc45)c(Cl)cc23)CC1 [Compound A171, 1-(4-(7-(2-amino-7-fluorobenzo[d]thiazol-4-yl)-6-chloro-8-fluoro-2-(((2R,7aS)-2-fluorotetrahydro-1H-pyrrolizin-7a(5H)-yl)methoxy)quinazolin-4-yl)-1,4-diazepane-1-carbonyl)-1H-imidazole-2-carbonitrile] | 1000 to 10000 | +++ (+++ indicates greater than 20% labelling) | A (A: indicates that the ratio of IC50 against KrasG12D vs. IC50 against KrasG12S is 1-fold or greater)
5 | Nc1nc2c(-c3c(Cl)cc4c(N5CC6(CCN(C(=O)n7cncn7)C6)C5)nc(OC[C@@]56CCCN5C[C@H](F)C6)nc4c3F)ccc(F)c2s1 [Compound A279, (2-(7-(2-amino-7-fluorobenzo[d]thiazol-4-yl)-6-chloro-8-fluoro-2-(((2R,7aS)-2-fluorotetrahydro-1H-pyrrolizin-7a(5H)-yl)methoxy)quinazolin-4-yl)-2,6-diazaspiro[3.4]octan-6-yl)(1H-1,2,4-triazol-1-yl)methanone] | 1000 to 10000 | +++ (+++ indicates greater than 20% labelling) | A (A: indicates that the ratio of IC50 against KrasG12D vs. IC50 against KrasG12S is 1-fold or greater)
6 | CC1(C)CN(c2nc(OC[C@@]34CCCN3C[C@H](F)C4)nc3c(F)c(-c4ccc(F)c5sc(N)c(C#N)c45)c(Cl)cc23)CC2(CN(C(=O)n3cncn3)C2)O1 [Compound A296, 2-amino-4-(6-chloro-4-(6,6-dimethyl-2-(1H-1,2,4-triazole-1-carbonyl)-5-oxa-2,8-diazaspiro[3.5]nonan-8-yl)-8-fluoro-2-(((2R,7aS)-2-fluorotetrahydro-1H-pyrrolizin-7a(5H)-yl)methoxy)quinazolin-7-yl)-7-fluorobenzo[b]thiophene-3-carbonitrile] | 1000 to 10000 | +++ (+++ indicates greater than 20% labelling) | A (A: indicates that the ratio of IC50 against KrasG12D vs. IC50 against KrasG12S is 1-fold or greater)
7 | N#Cc1nccn1C(=O)N1CCN(c2nc(OC[C@@]34CCCN3C[C@H](F)C4)nc3c(F)c(-c4ccc(F)c5sc(N)nc45)c(Cl)cc23)CC1 [Compound A272, 1-(4-(7-(2-amino-7-fluorobenzo[d]thiazol-4-yl)-6-chloro-8-fluoro-2-(((2R,7aS)-2-fluorotetrahydro-1H-pyrrolizin-7a(5H)-yl)methoxy)quinazolin-4-yl)piperazine-1-carbonyl)-1H-imidazole-2-carbonitrile] | 1000 to 10000 | +++ (+++ indicates greater than 20% labelling) | –
8 | CC1(C)CN(c2nc(OC[C@@]34CCCN3C[C@H](F)C4)nc3c(F)c(-c4ccc(F)c5sc(N)nc45)c(Cl)cc23)CC2(CN(C(=O)n3cncn3)C2)O1 [Compound A212, (8-(7-(2-amino-7-fluorobenzo[d]thiazol-4-yl)-6-chloro-8-fluoro-2-(((2R,7aS)-2-fluorotetrahydro-1H-pyrrolizin-7a(5H)-yl)methoxy)quinazolin-4-yl)-6,6-dimethyl-5-oxa-2,8-diazaspiro[3.5]nonan-2-yl)(1H-1,2,4-triazol-1-yl)methanone] | 1000 to 10000 | +++ (+++ indicates greater than 20% labelling) | –
9 | Nc1nc2c(-c3c(Cl)cc4c(N5CCC6(CN(C(=O)n7cncn7)CCO6)C5)nc(OC[C@@]56CCCN5C[C@H](F)C6)nc4c3F)ccc(F)c2s1 (stereo partly drawn) [Compound A202, (2-(7-(2-amino-7-fluorobenzo[d]thiazol-4-yl)-6-chloro-8-fluoro-2-(((2R,7aS)-2-fluorotetrahydro-1H-pyrrolizin-7a(5H)-yl)methoxy)quinazolm-4-yl)-6-oxa-2,9-diazaspiro[4.5]decan-9-yl)(1H-1,2,4-triazol-1-yl)methanone] | 1000 to 10000 | +++ (+++ indicates greater than 20% labelling) | –
10 | Nc1nc2c(-c3c(Cl)cc4c(N5CCCCC6(CN(C(=O)n7cncn7)C6)C5)nc(OC[C@@]56CCCN5C[C@H](F)C6)nc4c3F)ccc(F)c2s1 [Compound A265, (6-(7-(2-amino-7-fluorobenzo[d]thiazol-4-yl)-6-chloro-8-fluoro-2-(((2R,7aS)-2-fluorotetrahydro-1H-pyrrolizin-7a(5H)-yl)methoxy)quinazolm-4-yl)-2,6-diazaspiro[3.6]decan-2-yl)(1H-1,2,4-triazol-1-yl)methanone] | ≤ 1000 | +++ (+++ indicates greater than 20% labelling) | –
11 | Cc1ncn(C(=O)N2CCCC(Oc3nc(OC[C@@]45CCCN4C[C@H](F)C5)nc4c(F)c(-c5ccc(F)c6sc(N)c(C#N)c56)c(Cl)cc34)C2)n1 (stereo partly drawn) [Compound A302, 2-amino-4-(6-chloro-8-fluoro-2-(((2R,7aS)-2-fluorotetrahydro-1H-pyrrolizin-7a(5H)-yl)methoxy)-4-((1-(3-methyl-1H-1,2,4-triazole-1-carbonyl)piperidin-3-yl)oxy)quinazolin-7-yl)-7-fluorobenzo[b]thiophene-3-carbonitrile] | – | ++ (++ indicates between about 1%- 20% labelling) | A (A: indicates that the ratio of IC50 against KrasG12D vs. IC50 against KrasG12S is 1-fold or greater)
